From US10149817B2, “Topical skin treatment composition comprising dendranthema indicum extract” (AMOREPACIFIC CORPORATION, priority 2011, dated 2018) come the findings set out here.

One may read the inhibition as the percentage by which the read-out fell short of the control.

One data set relates to collagenase. As to the kind of experiment: Inhibition of collagenase expression in human fibroblasts. The format is cell-based. As to conditions: 10^−4 M test material, 24 hours, untreated group = 100. On the procedure: The collagenase expression inhibitory activities of the Chrysanthemum indicum var. albescens extract prepared in Preparation Example 1 and the Chrysanthemum indicum extract prepared in Comparative Preparation Example 1 were measured comparatively with those of tocopherol and EGCG. Tocopherol and EGCG are antioxidant substances known to function to regenerate the epidermal cells of the skin to prevent the aging of the skin.
In the test, human fibroblasts were added to a 96-well microtiter plate containing 2.5% FBS-containing DMEM (Dulbecco's Modified Eagle's Media) medium at a density of 5,000 cells/well and were cultured to a confluence of about 90%. […]
The production of collagenase in the harvested cell cultures was measured using a commercially available collagenase measuring device (Amersham Pharmacia, USA). […]
The absorbance of the 96-well plate having a yellow color was measured at 405 nm using a spectrophotometer, and the degree of synthesis of collagenase was calculated using the following Equation 1. Herein, the absorbance of the cell culture broth harvested from the group not treated with the test material was used as a control. That is, the expression level of collagenase in the untreated group was set as 100, and the expression level of collagenase in the group treated with the test material was calculated relative to the untreated group. […]

The subject of data set [1] is C57BL/6 mouse melanocytes (Mel-Ab cells). Briefly: Melanin production inhibitory effect using mouse melanocytes. The class given is cell-based. Conditions: 25 ppm test material, three consecutive days, absorbance at 400 nm. On the procedure: The melanin production inhibitory activities of the Chrysanthemum indicum var. albescens extract prepared in Preparation Example 1 and the Chrysanthemum indicum extract prepared in Comparative Preparation Example 1 were measured comparatively with those of the known whitening substance hydroquinone.
C57BL/6 mouse melanocytes (Mel-Ab cells) (Dooley, T. P. et al, Skin pharmacol, 7, pp 188-200) were cultured in DMEM, containing 10% fetal bovine serum, 100 nM 12-O-tetradecanoylphorbol-13-acetate and 1 nM cholera toxin, under the conditions of 37° C. and 5% CO2. The cultured Mel-Ab cells were detached with 0.25% trypsin-EDTA and cultured in a 24-well plate at a concentration of […]. Then, during three consecutive days from 2 days of culture, each of the test materials was added thereto and cultured. As the test materials, 25 ppm of each of the Chrysanthemum indicum var. albescens extract of Preparation Example 1, the Chrysanthemum indicum extract of Comparative Preparation Example 1, and hydroquinone were used. Herein, the hydroquinone was used as a positive control. […] The lysed cells were measured for absorbance at 400 nm, and based on the measured absorbance, the percent inhibition of melanin production was calculated according to the following equation 2. Percent inhibition of melanin production=100−(absorbance of test material/absorbance of control×100) Equation 2

In data set [2] the test system is skin of panels sensitive to irritation. Briefly: Irritation test (stinging, burning) in panels sensitive to irritation. Conditions: 0.5 mL applied to skin, 15 panels. The format is in vivo. On the procedure: In order to compare the sensory feeling of the Chrysanthemum indicum var. albescens extract of the present invention with that of the known whitening substance kojic acid, 15 panels sensitive to irritation, such as stinging, burning, etc., were subjected to a test for determining irritation, such as stinging, burning, etc.
Each test panel was allowed to apply 0.5 mL of each of kojic acid (available from YM Chemical Co.) and the Chrysanthemum indicum var. albescens extract to his/her skin randomly at the left side or right side, and then evaluate the test sample by grading from 0 to 3.0 at an interval of 0.1.
0.5-1.0: slight irritation;
1.1-2.0: mild irritation;
2.1-3.0: severe irritation.

[3] abbreviates: grade 0 to 3.0 at interval of 0.1.

Take `O=C(O[C@@H]1Cc2c(O)cc(O)cc2O[C@@H]1c1cc(O)c(O)c(O)c1)c1cc(O)c(O)c(O)c1` [EGCG]: in the data set on collagenase, the “Collagenase expression level (%)” value is recorded as 69%.
With `Oc1ccc(O)cc1` [Hydroquinone, hydroquinone], testing at 25 ppm in data set [1] gave an inhibition of 48.2%.
In the case of `O=c1cc(CO)occ1O` [Kojic acid, kojic acid], in data set [2], the “Irritation with respect to stinging and burning (in words)” value is “slight stinging and burning”. Moreover, in data set [2] (grade 0 to 3.0), the “Average (irritation grade of stinging and burning)” value came to 0.67. Besides, in data set [2] (setting [3]), the “Burning (irritation grade 0 to 3.0)” value was 0.43 and the “Stinging (irritation grade 0 to 3.0)” value amounted to 0.91.
As for tocopherol, the “Collagenase expression level (%)” value with collagenase was 76%.
